Key:
[1] = test system: Arf1; assay: Arf1 expression in rat neuronal cultures (proteomics, Western blot); type: cell-based; conditions: IFNα 300 IU/ml
Experimental: (§1) Rat neurons were either obtained from Brain Bits (Cat #SDECX; embryonic day 18) and cultured in NBACTIV1 media (Cat #nbactivl) until day 14, when they are relatively “mature”, or cortical neurons were prepared from embryonic day 18 Sprague Dawley fetuses. Two different densities of neurons were utilized, based on test procedures. For PSD-95 puncta, low density cultures (10,000 neurons/cm') were placed on 12 mm poly D Lysine (Sigma cat #2636) coated coverslips, incubated in wells with glia (astrocytes) or removed for IFNα (300 IU/ml) exposure. High density cultures (500,000 neurons/60 mm dish) were used for protein extraction. These cultures contained approximately 2-3% glia (GFAP immunostaining).
Protein samples (5 to 10 micrograms) were resolved in Criterion precast gels (Bio-Rad) and transferred to a PVDF membrane using a semidry system (Bio-Rad). All blocking antibody and washing steps were performed at room temperature (RT) on a rocker. Membranes were incubated for one hour in 3% non-fat dry milk in TBST (25 mM Tris, 140 mM NaCl, 3 mM KCl, and 0.05% Tween-20), then 4 hr in anti-Arfl antibody (cat #ARP75924_P050, Aviva; 1:1000) diluted in 1% non-fat dry milk in TBST. Membranes were briefly washed in TBST followed by 3 separate 5 minute incubations in TBST. Membranes were incubated for one hour with goat anti-rabbit IgG HRP (cat #NEF812001EA, Perkin Elmer 1:5,000) diluted in 1% non-fat dry milk in TBST. Final washing included a quick rinse with ddH2O, 2 min wash in TBST, 4 min wash in TBST, and 5 min wash in 1× TBS. Immunoreactive bands were detected with chemiluminescence using ECL Prime substrate (cat #RPN2236, GE Healthcare Life Sciences) on a Chemidoc imager (Bio-Rad), and quantified with ImageJ (NIH). Arf1 signal was normalized to GAPDH Western blot (WB) intensity (cat #MAB374, Millipore;1:20,000).
For proteomic analysis of total protein, rat cortical neurons were cultured in 60 mm dishes in high density (described above). After 14 days, cells were treated with 300 IU/mL IFNα for 20 min, 2 hr, 8 hr, 24 hr, or 48 hr. For comparison of the proteome, untreated cells were given sterile, distilled water (vehicle) equal to the volume of IFNα. After incubations, cells were washed once in RT phosphate buffered saline (PBS) and scraped into 500 microliters of PBS. Cell slurries were snap frozen in a dry ice ethanol bath and processed by the Emory University Proteomics Core.
To select proteins for further analysis, GO-Elite software was used. […] These lists of accession numbers were derived by identifying proteins for which the total peptide spectral match (PSM) was seven-fold (or more) lower in the IFNα treated sample than in the control sample. […] Thus, Arfl was selected for WB analysis.

[2] = test system: rat neurons; assay: PSD-95 puncta on rat neurons exposed to IFNα; type: cell-based; conditions: IFNα 300 IU/mL, compared to control neurons
Experimental: as §1
Rat neurons were seeded on poly-L-lysine coated coverslips and co-cultured with astroglia. On day 14, half of the conditioned medium from co-culture was transferred to new 6 well plates. […] PSD-95 puncta were identified and counted with SYNPANAL software. […] PSD-95 puncta along the region were counted and divided by the length to obtain PSD-95 puncta/unit. […] For each treatment, the average puncta/unit was determined by averaging the puncta/unit for each neuron (at least 10/treatment in each replicate plate). For each treatment within the experiment, the average puncta/unit is determined by averaging the puncta/unit for each replicate of that treatment (thus, n=3/treatment) for 20 min and 2 hours. […]

[3] = test system: AMPA receptor (AMPAR); assay: AMPA receptor (GLuR2) immunofluorescent staining of rat neurons; type: cell-based; conditions: IFNα exposure for 2 hours
Experimental: Rat neurons were fixed with 4% paraformaldehyde in PBS for 20 min at RT. They were incubated with anti-GLuR2 (EMD Millipore, Burlington Mass.; 1:100), a subunit of the AMPA receptor (AMPAR), for 1 hour at RTO in the dark. After washes, this was followed by incubation with DAPI […] (Images were subjected ImageJ software for densitometric analysis).

[4] = test system: rat neuronal cultures; conditions: mediated through IFNAR and NMDAR, earlier studies; cited from earlier work

IFNα
Arf1 level (Western blot) ([1]; 2 hours): decreases
Arf1 level (Western blot) ([1]; 4 hours): decreases
Arf1 level (Western blot) ([1]; 8 hours (data not shown)): decreased
Arf1 level (Western blot) ([1]; 24 hours (data not shown)): not consistently
PSD-95 puncta ([2]; 20 minutes): significantly decreased
PSD-95 puncta ([2]; 2 hours): significantly decreased
neuronal surface expression of AMPARs [3]: significantly decreased
effect on dendrites of rat neuronal cultures [4]: dendritic simplification

— patent US11690895B2, “Compositions and methods of interferon alpha binding proteins” (priority 2017, dated 2023)
